{
  "source": "patent US20070292351A1",
  "about": "“Assay for efficacy of histone deacetylase inhibitors” (Methylgene, Inc., priority 2006, published 2007)",
  "key": {"IL-6": {"test_system": "IL-6", "assay": "IL-6 protein levels in plasma by ELISA", "format": "in vivo, human", "conditions": "leukemia patients, Day 8, ELISA (FIG. 17)", "experimental": "FIG. 17 Induction of plasma IL-6 from leukemia patients from treated with MGCD0103 at Day 8, analyzed by ELISA assays.\nPatient plasma samples at […] were analyzed by ELISA\n(§1) Human patients with either solid tumors or leukemia/MDS diseases were enrolled in phase I studies with consensus forms. MGCD0103 were dosed into patients orally every other day (day 1, day 3, day 5 […]). Blood samples were withdrawled by using the Vacutainer sodium-heparin blood collection tubes (Becton Dickinson Laboratories, Franklin Lakes, N.J.) and shipped to the test site within 24 hours on ice-pack. Baseline samples were drawn immediately prior to the first drug dose, while the 24 hour samples were drawn at 24 hours post the first drug dose. The 48 hours samples were drawn at 48 hours post the first dose. For the 1 week samples, blood was drawn 72 hours after day 5 dose (3 accumulated doses during week 1).\nBlood from patients was centrifuged at 2500 RPM for 10 min at 10° C. Plasma was separated and frozen until used. Plasma was thawed, and spun again at 2500 RPM for 10 min at 10° C. The level of IL-6 was determined by ELISA (eBioscience, San Diego, Calif.), following the manufacturer's instructions. IL-6 concentration (pg/ml) in the samples was calculated from a standard curve generated by using standard IL-6 also provided in the kit. […] All the data was calculated and plotted using Excel."}, "bone marrow blast count": {"test_system": "bone marrow blast count", "assay": "Bone marrow blast count in AML patient", "format": "in vivo, human", "conditions": "AML Patient A, 2 cycles of treatment (FIG. 10)", "experimental": "FIG. 10. Reduction of bone marrow blast count in Patient A after 2 cycles of MGCD0103 treatment in vivo.\nas §1"}, "RPMI-8226 myeloma cells": {"test_system": "RPMI-8226 myeloma cells", "assay": "RT-PCR of MT3 transcription in RPMI-8226 cells", "format": "cell-based, human", "conditions": "16 h, semi-quantitative RT-PCR (FIG. 2)", "experimental": "(§2) RNA was extracted from 8×10^6 cells using the Qiagen RNeasy Mini kit (cat#74106, Qiagen, Missisauga Ont.) following the manufacturer's instructions. RT reaction was performed using the Expand Reverse Transcriptase kit from Roche (Cat#1 785 834 Roche Applied Biosciences, Laval, Que) with 1 μg total RNA together with 1 μl oligo(dT) primer (cat#y01212, Invitrogen-Canada, Burlington, Ont). cDNA was synthesized using an Eppendorf Mastercycler gradient PCR apparatus (Brinkmann Instruments Canada LTD., Mississauga, Ontario), using a two cycle protocol. For the 1st cycle reaction mixture (0.5 μl H2O, 4 μl of 5× Buffer, 2 μl DTT, 2 ul of 10 mM dNTPs, 0.5 μl RNAsin (cat#N211B, Promega, Fisher Scientific, Whitby, Ont.) and […] of the Expand Reverse Transcriptase (Cat#1785834, Roche, Laval, Quebec)) was incubated at 65° C. for 10 minutes and then set on ice. A second cycle was performed at 42° C. for 1 hour. The resulting cDNA products were kept at 4° C. until used.\nOne ul of the resulting cDNA was used for every amplification reaction with 18.9 ul H2O, 1.25 ul of 10 mM dNTPs, 0.5 ul of each primer pair, 2.5 ul of 10× Buffer. The PCR reaction was carried out in an Eppendorf Mastercycler gradient. The sequences of the primers used for the amplification of selected biomarkers, as well as the details of the PCR reaction cycles are featured below. […]"}, "Jurkat cells": {"test_system": "Jurkat cells", "assay": "IL-6 transcription in Jurkat cells", "format": "cell-based, human", "conditions": "24 hours (FIG. 14)", "experimental": "(§3) Quantitative PCR with SYBR Green I detection with Mastercycler® ep realplex (Eppendorf) was performed using LightCycler® 480 SYBR Green I Master (Roche Diagnostics). SYBR Green I assays were performed with 600 nM primers. All other reaction conditions were as described by the manufacturer. Amplification conditions were 5 minutes of initial denaturation at 95° C., followed by 40 cycles of each 15 seconds at 95° C., 15 seconds at 63.4° C., 20 seconds at 68° C., a melting curve from 60° C. to 95° C. was recorded. Quantification was performed using Pfaffl method, a relative quantification method in real-time PCR (Nucleic Acids Research 2001 29:2002-2007). Primers were synthesized by Invitrogen (Invitrogen-Canada, Burlington, Ont.)."}, "[1]": {"test_system": "human peripheral white cells", "assay": "Microarray gene expression analysis, peripheral white cells ex vivo", "format": "cell-based", "conditions": "WBC ex vivo", "experimental": "Whole blood from either consenting healthy volunteers or consenting patients was centrifuged at 2500 rpm for 10 minutes at ambient temperature in a Sorvall RT-7 centrifuge (Mandel Scientific Co., Guelph, Ontario). Plasma was removed and buffy coat was collected. Five volumes of Erythrocyte Lysis Buffer (EL) (Qiagen Canada Inc., Mississauga, Ontario) were added into buffy coat. Buffy coat was incubated on ice for 20 minutes before it was centrifuged at 400 g for 10 minutes at 4° C. Supernatant was removed and buffy coat was washed twice with EL buffer and re-centrifuged. Buffy coat was resuspended in RPMI media and cells were counted with trypan blue exclusion. To isolate PBMCs, buffy coat cells were centrifuged over Lymphoprep (Axis-Shield, 1114544), and any remaining erythrocytes in the sample were lysed by treatment with EL lysis buffer (Qiagen, 79217). The cell pellets are washed and then re-suspended in RPMI containing 10% FBS.\nBiological analysis was performed using Biointerpreter software."}, "[2]": {"test_system": "human colon cancer HCT15 cells", "assay": "RT-PCR of MT3 transcription in HCT15 cells", "format": "cell-based", "experimental": "FIG. 1. […] HCT15 cells were treated with HDAC inhibitors or indicated compounds for 16 hours before total RNAs are isolated. RNA levels of MT3 were measured by real-time RT-PCR and are subsequently normalized against β-actin.\nColon cancer HCT15 cells were exposed to 1 μM MGCD0103 for various amounts of time, and MT3 RNA levels were monitored by conventional semi-quantitative RT-PCR. Maximal induction is achieved between 8 h and 24 h of exposure and maintained through 72 h.\nas §2\nOne ul of the resulting cDNA was used for every amplification reaction with 18.9 ul H2O, 1.25 ul of 10 mM dNTPs, 0.5 ul of each primer pair, 2.5 ul of 10× Buffer. The PCR reaction was carried out in an Eppendorf Mastercycler gradient. The sequences of the primers used for the amplification of selected biomarkers, as well as the details of the PCR reaction cycles are featured below. All buffers came from Expand Long Template PCR system (Roche, Laval, Quebec, Cat#11681842001). All primers were synthesized by Invitrogen (Invitrogen-Canada, Burlington, Ont.)\nAnalysis of transcripts was performed using STORM 860 (Amersham Biosciences, Baie d'Urfe, Qubec). Transcription of genes was normalized to transcription of actin, which was performed in the same RT-PCR reaction. The relative expression level of gense was normalized to baseline signals.\nas §3"}},
  "note": "Like-named read-outs stand apart in the source and are kept apart here.",
  "data": [
    {"smiles": "Nc1ccccc1NC(=O)c1ccc(CNc2nccc(-c3cccnc3)n2)cc1", "note": "[MGCD0103]", "values": [
      {"measurement": "induction of plasma IL-6", "setting": "IL-6", "value": "induction"},
      {"measurement": "bone marrow blast count", "setting": "bone marrow blast count", "value": "reduction"},
      {"measurement": "Dose-dependent induction of MT3 transcription", "setting": "RPMI-8226 myeloma cells", "value": "Dose-dependent induction"},
      {"measurement": "dose-dependent induction of IL-6 transcription", "setting": "Jurkat cells", "value": "dose-dependent induction"},
      {"measurement": "fold induction at 1 µM", "setting": "[1]; probe A_23_P16523, read-out: Fold Induction of GDF15 transcription", "value": 18.8},
      {"measurement": "fold induction at 1 µM", "setting": "[1]; probe A_23_P41344, read-out: Fold Induction of EREG transcription", "value": 12.8},
      {"measurement": "fold induction at 1 µM", "setting": "[1]; probe A_23_P52336, read-out: Fold Induction of UNC5B transcription", "value": 2.66},
      {"measurement": "fold induction at 1 µM", "setting": "[1]; probe A_23_P94754, read-out: Fold Induction of TNFSF15 transcription", "value": 4.43},
      {"measurement": "fold induction at 1 µM", "setting": "[1]; probe A_23_P114947, read-out: Fold Induction of RGS2 transcription", "value": 4.43},
      {"measurement": "fold induction at 1 µM", "setting": "[1]; probe A_23_P142506, read-out: Fold Induction of GADD45B transcription", "value": 2.9},
      {"measurement": "fold induction at 1 µM", "setting": "[1]; probe A_23_P149019, read-out: Fold Induction of BAI2 transcription", "value": 2.69},
      {"measurement": "fold induction at 1 µM", "setting": "[1]; probe A_23_P151046, read-out: Fold Induction of KLRC1 transcription", "value": 3.12},
      {"measurement": "fold induction at 1 µM", "setting": "[1]; probe A_23_P259071, read-out: Fold Induction of AREG transcription", "value": 32.6},
      {"measurement": "fold induction at 1 µM", "setting": "[1]; probe A_23_P315273, read-out: Fold Induction of MT3 transcription", "value": 5.16},
      {"measurement": "fold induction at 1 µM", "setting": "[1]; probe A_24_P5856, read-out: Fold Induction of TNFSF9 transcription", "value": 3.32},
      {"measurement": "fold induction at 1 µM", "setting": "[1]; probe A_24_P217520, read-out: Fold Induction of EREG transcription", "value": 10.5},
      {"measurement": "Time-dependent induction of MT3 transcription", "setting": "[2]; 1 uM (FIG. 3)", "value": "Time-dependent induction"},
      {"measurement": "time through which maximal MT3 induction is maintained", "setting": "[2]; 1 uM (FIG. 3)", "value": "≥ 72", "unit": "h"},
      {"measurement": "Dose-dependent induction of MT3 transcription", "setting": "[2]; 16 h, semi-quantitative RT-PCR (FIG. 2)", "value": "Dose-dependent induction"},
      {"measurement": "Induction of transcription of MT3", "setting": "[2]; 16 hours, real-time RT-PCR normalized against beta-actin (FIG. 1)", "value": "induced"}
    ]}
  ]
}
